Activity calls are given as the source filed them. The rule behind the calls is not given here.

Data set [1] concerns the target T1, Toll-like receptor 4 (Homo sapiens, UniProt O00206). The data set can be described thus: Antagonist activity at TLR4 in human THP1 cells assessed as inhibition of LPS-stimulated RANTES mRNA level at 10 uM after 16 hrs by RT-PCR method. Type of data set: cell-based.
Data set [2] concerns AD293. The data set can be described thus: Cytotoxicity against human AD293 cells assessed as reduction in cell viability at 10 uM after 24 hrs by methylene blue dye based spectrophotometric method. Particulars: ad293, 24 h.
For data set [3], the target named is T1, Toll-like receptor 4. Nature of the data set: Antagonist activity at TLR4 (unknown origin) expressed in human AD293 cells assessed as inhibition of LPS/ATP-stimulated TLR4/NF-kB signaling pathway at 10 uM after 16 hrs by luciferase reporter gene assay. Type of data set: cell-based. (A reporter such as luciferase makes a cellular process visible.)
The target in data set [4] is T1, Toll-like receptor 4. The data set can be described thus: Antagonist activity at TLR4 in human THP1 cells assessed as inhibition of LPS-stimulated IL-6 mRNA level at 10 uM after 16 hrs by RT-PCR method. Type of data set: cell-based.
Data set [5] deals with Toll-like receptor 3 (Homo sapiens) (UniProt O15455). Nature of the data set: Antagonist activity at TLR3 in human THP1 cells assessed as inhibition of poly IC-stimulated IL-1beta level at 10 uM by bead based immunoassay. The data set is classed as cell-based.
For data set [6], the target named is T1, Toll-like receptor 4. Nature of the data set: Antagonist activity at TLR4 in human THP1 cells assessed as inhibition of LPS-stimulated NF-kB canonical signaling pathway by measuring decrease in IkBalpha phosphorylation at 10 uM after 3 hrs by Western blot analysis. Type of data set: cell-based.
In data set [7] the target is T1, Toll-like receptor 4. Nature of the data set: Antagonist activity at TLR4 in human THP1 cells assessed as inhibition of LPS-stimulated TNFalpha level at 10 uM by bead based immunoassay. Type of data set: cell-based.
Data set [8] relates to AD293. The data set can be described thus: Upregulation of IKKalpha protein expression in TNFalpha-stimulated human AD293 cells at 10 uM after 3 hrs by Western blot analysis. The data set is classed as functional, cell-based.
In data set [9] the target is Toll-like receptor 2 (Homo sapiens) (UniProt O60603). Nature of the data set: Antagonist activity at TLR2 in human THP1 cells assessed as inhibition of PGN-stimulated TNFalpha level at 10 uM by bead based immunoassay. The data set is classed as cell-based.
Data set [10] deals with Transcription factor p65 (Homo sapiens) (UniProt Q04206). Nature of the data set: Inhibition of TNFalpha-stimulated NF-kB p65 activation (unknown origin) expressed in human AD293 cells assessed as nuclear translocation of p65 at 10 uM after 3 hrs by confocal microscopic method. The data set is classed as cell-based.
In data set [11] the test system is THP-1. The data set can be described thus: Downregulation of IkBalpha protein expression in human THP1 cells at 10 uM after 3 hrs by Western blot analysis. The data set is classed as functional, cell-based. (In general: Immunoblotting shows a protein as a band on a membrane.)
Data set [12] concerns the target T1, Toll-like receptor 4. The data set can be described thus: Antagonist activity at TLR4 in human THP1 cells assessed as increase in LPS-stimulated NFkappaB p65 phosphorylation at 10 uM after 3 hrs by Western blot analysis. The data set is classed as cell-based.
Data set [13] has as its target Transcription factor p65 (Homo sapiens) (UniProt Q04206). Nature of the data set: Upregulation of NF-kB p65 phosphorylation (unknown origin) expressed in human AD293 cells at 10 uM after 3 hrs by Western blot analysis. The data set is classed as cell-based.
Data set [14] deals with THP-1. Nature of the data set: Upregulation of IKKalpha protein expression in human THP1 cells at 10 uM after 3 hrs by Western blot analysis. Type of data set: functional, cell-based.
Data set [15] concerns THP-1. Nature of the data set: Downregulation of IkBalpha protein expression in LPS-stimulated human THP1 cells at 10 uM after 3 hrs by Western blot analysis. The data set is classed as functional, cell-based.
Data set [16] deals with T1, Toll-like receptor 4. The data set can be described thus: Antagonist activity at TLR4 in human THP1 cells assessed as inhibition of LPS-stimulated IL-1beta level at 10 uM by bead based immunoassay. The data set is classed as cell-based.
Data set [17] deals with Toll-like receptor 2 (Homo sapiens) (UniProt O60603). Nature of the data set: Antagonist activity at TLR2 in human THP1 cells assessed as inhibition of PGN-stimulated IL-1beta level at 10 uM by bead based immunoassay. Type of data set: cell-based.
In data set [18] the target is Toll-like receptor 3 (Homo sapiens) (UniProt O15455). Nature of the data set: Antagonist activity at TLR3 in human THP1 cells assessed as inhibition of poly IC-stimulated RANTES mRNA level at 10 uM after 16 hrs by RT-PCR method. The data set is classed as cell-based.
The target in data set [19] is T1, Toll-like receptor 4. The data set can be described thus: Antagonist activity at TLR4 (unknown origin) expressed in human AD293 cells assessed as inhibition of LPS/ATP-stimulated TLR4/NF-kB signaling pathway after 16 hrs by luciferase reporter gene assay. The data set is classed as cell-based.
For data set [20], the system named is AD293. Nature of the data set: Upregulation of IKKalpha protein expression in human AD293 cells at 10 uM after 3 hrs by Western blot analysis. The data set is classed as functional, cell-based.
In data set [21] the target is T1, Toll-like receptor 4. Nature of the data set: Antagonist activity at TLR4 in human THP1 cells assessed as inhibition of LPS-stimulated IL-6 level at 10 uM by bead based immunoassay. The data set is classed as cell-based.
In data set [22] the test system is THP-1. The data set can be described thus: Effect on RelB protein expression in human THP1 cells at 10 uM after 3 hrs by Western blot analysis. Type of data set: functional, cell-based.
The target of data set [23] is T1, Toll-like receptor 4. Nature of the data set: Antagonist activity at TLR4 in human THP1 cells assessed as inhibition of LPS-stimulated NF-kB non-canonical signaling pathway by measuring decrease in RelB expression at 10 uM after 3 hrs by Western blot analysis. Type of data set: cell-based.
In data set [24] the target is Toll-like receptor 3 (Homo sapiens) (UniProt O15455). Nature of the data set: Antagonist activity at TLR3 in human THP1 cells assessed as inhibition of poly IC-stimulated IL-6 mRNA level at 10 uM after 16 hrs by RT-PCR method. The data set is classed as cell-based.
The subject of data set [25] is THP-1. Nature of the data set: Upregulation of IKKalpha protein expression in LPS-stimulated human THP1 cells at 10 uM after 3 hrs by Western blot analysis. The data set is classed as functional, cell-based.
For data set [26], the target named is T2, NF-kappa-B inhibitor alpha (Homo sapiens) (UniProt P25963).
T2 sequence (whole entry): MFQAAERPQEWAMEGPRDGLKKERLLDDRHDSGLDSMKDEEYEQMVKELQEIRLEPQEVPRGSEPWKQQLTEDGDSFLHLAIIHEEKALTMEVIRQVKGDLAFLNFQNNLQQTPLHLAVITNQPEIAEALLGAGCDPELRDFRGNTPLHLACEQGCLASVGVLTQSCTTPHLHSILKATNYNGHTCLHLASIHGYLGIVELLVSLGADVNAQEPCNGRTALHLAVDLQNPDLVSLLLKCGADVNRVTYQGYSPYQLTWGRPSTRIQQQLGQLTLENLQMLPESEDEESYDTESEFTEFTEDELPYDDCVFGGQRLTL
Nature of the data set: Inhibition of TNFalpha-stimulated IkBalpha phosphorylation in human AD293 cells at 10 uM after 3 hrs by Western blot analysis. The data set is classed as cell-based.

In data set [27] the target is Toll-like receptor 3 (Homo sapiens) (UniProt O15455). Nature of the data set: Antagonist activity at TLR3 in human THP1 cells assessed as inhibition of poly IC-stimulated TNFalpha level at 10 uM by bead based immunoassay. The data set is classed as cell-based.
Data set [28] deals with T1, Toll-like receptor 4. Nature of the data set: Antagonist activity at TLR4 in human THP1 cells harboring human TRAF6 assessed as inhibition of LPS-stimulated IL-1beta level at 10 uM by bead based immunoassay. The data set is classed as cell-based.
The target in data set [29] is Transcription factor p65 (Homo sapiens) (UniProt Q04206). The data set can be described thus: Inhibition of TNFalpha-stimulated NF-kB p65 phosphorylation (unknown origin) expressed in human AD293 cells at 10 uM after 3 hrs by Western blot analysis. Type of data set: cell-based.
In data set [30] the target is T1, Toll-like receptor 4. Nature of the data set: Antagonist activity at TLR4 in human THP1 cells harboring human TRAF6 assessed as inhibition of LPS-stimulated TNFalpha level at 10 uM by bead based immunoassay. The data set is classed as cell-based.
Data set [31] deals with AD293. The data set can be described thus: Effect on IkBalpha protein expression in TNFalpha-stimulated human AD293 cells at 10 uM after 3 hrs by Western blot analysis. Type of data set: functional, cell-based.
For data set [32], the target named is Toll-like receptor 2 (Homo sapiens) (UniProt O60603). The data set can be described thus: Antagonist activity at TLR2 in human THP1 cells assessed as inhibition of PGN-stimulated RANTES mRNA level at 10 uM after 16 hrs by RT-PCR method. Type of data set: cell-based.
Data set [33] deals with T1, Toll-like receptor 4. Nature of the data set: Antagonist activity at TLR4 in human THP1 cells harboring human TRAF6 assessed as inhibition of LPS-stimulated IL-6 level at 10 uM by bead based immunoassay. Type of data set: cell-based.
Data set [34] concerns the target Toll-like receptor 2 (Homo sapiens) (UniProt O60603). The data set can be described thus: Antagonist activity at TLR2 in human THP1 cells assessed as inhibition of PGN-stimulated IL-6 mRNA level at 10 uM after 16 hrs by RT-PCR method. Type of data set: cell-based.
The species entered for data set [35] is Homo sapiens. Nature of the data set: Inhibition of TNFalpha-stimulated NF-kB signaling pathway (unknown origin) expressed in human AD293 cells after 4 hrs by luciferase reporter gene assay. The data set is classed as cell-based.
The subject of data set [36] is AD293. The data set can be described thus: Cytotoxicity against human AD293 cells assessed as reduction in cell viability after 24 hrs by methylene blue dye based spectrophotometric method. Particulars: ad293, 24 h.

Transcription factor p65 (Homo sapiens), sequence (Q04206 whole entry): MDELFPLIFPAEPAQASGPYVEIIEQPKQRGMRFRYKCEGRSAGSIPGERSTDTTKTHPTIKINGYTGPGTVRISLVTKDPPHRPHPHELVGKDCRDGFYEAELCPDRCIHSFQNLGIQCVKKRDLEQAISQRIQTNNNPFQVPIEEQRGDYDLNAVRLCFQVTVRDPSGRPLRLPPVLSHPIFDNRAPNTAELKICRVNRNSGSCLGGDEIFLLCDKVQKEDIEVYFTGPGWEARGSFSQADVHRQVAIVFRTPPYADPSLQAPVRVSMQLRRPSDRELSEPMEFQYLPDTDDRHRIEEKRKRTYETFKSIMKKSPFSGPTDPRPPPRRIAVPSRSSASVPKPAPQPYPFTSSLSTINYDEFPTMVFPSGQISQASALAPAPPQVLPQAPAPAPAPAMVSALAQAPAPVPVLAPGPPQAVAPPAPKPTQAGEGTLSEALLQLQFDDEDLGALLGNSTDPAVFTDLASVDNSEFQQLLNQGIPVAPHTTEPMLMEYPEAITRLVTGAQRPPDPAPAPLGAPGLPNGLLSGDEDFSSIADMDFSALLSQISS
T1 sequence (O00206 whole entry): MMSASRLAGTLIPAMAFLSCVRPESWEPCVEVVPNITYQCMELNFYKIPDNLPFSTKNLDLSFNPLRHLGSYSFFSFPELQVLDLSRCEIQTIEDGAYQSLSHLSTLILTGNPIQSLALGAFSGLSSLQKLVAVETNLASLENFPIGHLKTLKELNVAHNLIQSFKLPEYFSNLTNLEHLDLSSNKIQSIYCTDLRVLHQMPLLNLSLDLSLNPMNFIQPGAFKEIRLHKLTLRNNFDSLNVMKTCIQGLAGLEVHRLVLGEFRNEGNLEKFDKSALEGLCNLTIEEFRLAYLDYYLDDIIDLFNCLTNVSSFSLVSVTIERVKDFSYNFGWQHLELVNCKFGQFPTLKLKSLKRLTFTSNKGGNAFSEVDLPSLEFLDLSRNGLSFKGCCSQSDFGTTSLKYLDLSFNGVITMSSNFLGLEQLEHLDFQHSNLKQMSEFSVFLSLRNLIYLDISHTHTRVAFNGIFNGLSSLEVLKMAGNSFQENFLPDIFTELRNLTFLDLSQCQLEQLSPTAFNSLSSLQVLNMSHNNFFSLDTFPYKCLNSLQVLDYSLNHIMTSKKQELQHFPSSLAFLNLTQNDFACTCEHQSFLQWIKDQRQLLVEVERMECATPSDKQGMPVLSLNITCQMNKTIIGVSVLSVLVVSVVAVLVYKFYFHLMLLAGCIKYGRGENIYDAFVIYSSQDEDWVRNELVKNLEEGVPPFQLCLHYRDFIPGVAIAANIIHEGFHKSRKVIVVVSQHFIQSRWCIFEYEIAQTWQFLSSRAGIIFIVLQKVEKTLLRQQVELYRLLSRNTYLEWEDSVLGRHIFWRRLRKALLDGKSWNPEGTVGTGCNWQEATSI
Toll-like receptor 3 (Homo sapiens), sequence (O15455 whole entry): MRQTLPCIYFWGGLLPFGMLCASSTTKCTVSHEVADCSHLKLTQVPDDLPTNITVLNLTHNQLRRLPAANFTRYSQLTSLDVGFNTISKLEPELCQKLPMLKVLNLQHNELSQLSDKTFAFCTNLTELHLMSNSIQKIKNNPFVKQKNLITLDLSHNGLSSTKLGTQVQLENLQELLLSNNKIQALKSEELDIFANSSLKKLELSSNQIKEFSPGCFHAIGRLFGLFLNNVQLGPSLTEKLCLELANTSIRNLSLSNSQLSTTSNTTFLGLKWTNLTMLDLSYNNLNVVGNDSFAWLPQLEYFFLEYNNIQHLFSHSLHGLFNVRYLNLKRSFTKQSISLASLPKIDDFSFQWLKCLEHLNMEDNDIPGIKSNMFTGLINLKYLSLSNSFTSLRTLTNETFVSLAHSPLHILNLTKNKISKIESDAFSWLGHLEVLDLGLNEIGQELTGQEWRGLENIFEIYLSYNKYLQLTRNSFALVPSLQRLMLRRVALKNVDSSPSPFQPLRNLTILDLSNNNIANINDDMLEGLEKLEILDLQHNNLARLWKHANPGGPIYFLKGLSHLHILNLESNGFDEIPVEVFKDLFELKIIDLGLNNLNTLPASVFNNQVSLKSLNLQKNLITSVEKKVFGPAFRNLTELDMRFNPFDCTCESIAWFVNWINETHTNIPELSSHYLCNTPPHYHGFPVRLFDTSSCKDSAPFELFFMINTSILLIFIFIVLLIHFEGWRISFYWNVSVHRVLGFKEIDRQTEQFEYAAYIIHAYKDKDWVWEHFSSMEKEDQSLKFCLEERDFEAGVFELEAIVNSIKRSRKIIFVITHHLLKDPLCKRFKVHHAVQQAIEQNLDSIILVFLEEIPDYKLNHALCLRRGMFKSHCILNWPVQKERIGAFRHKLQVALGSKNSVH
Toll-like receptor 2 (Homo sapiens), sequence (O60603 whole entry): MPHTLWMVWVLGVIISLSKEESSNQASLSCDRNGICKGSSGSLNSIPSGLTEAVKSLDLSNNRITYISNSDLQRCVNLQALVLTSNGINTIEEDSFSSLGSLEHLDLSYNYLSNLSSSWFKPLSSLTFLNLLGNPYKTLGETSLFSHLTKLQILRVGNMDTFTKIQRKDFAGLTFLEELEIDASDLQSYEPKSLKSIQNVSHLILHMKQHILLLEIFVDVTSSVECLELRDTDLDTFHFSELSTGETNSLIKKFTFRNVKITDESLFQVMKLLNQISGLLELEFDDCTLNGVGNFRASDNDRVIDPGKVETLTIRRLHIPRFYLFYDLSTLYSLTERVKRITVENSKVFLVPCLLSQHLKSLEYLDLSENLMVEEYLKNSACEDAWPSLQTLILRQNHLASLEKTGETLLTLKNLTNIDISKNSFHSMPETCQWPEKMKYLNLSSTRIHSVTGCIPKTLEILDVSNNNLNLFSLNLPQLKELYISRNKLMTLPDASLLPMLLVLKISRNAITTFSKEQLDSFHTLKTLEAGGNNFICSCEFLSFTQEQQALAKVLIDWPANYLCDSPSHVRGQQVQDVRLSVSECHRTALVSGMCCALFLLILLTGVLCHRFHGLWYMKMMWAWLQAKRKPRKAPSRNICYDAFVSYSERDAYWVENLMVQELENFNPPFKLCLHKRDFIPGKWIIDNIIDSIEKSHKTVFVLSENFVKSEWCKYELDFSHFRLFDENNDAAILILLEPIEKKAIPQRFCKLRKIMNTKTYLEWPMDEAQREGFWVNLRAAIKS

Take `CC(=O)[C@]1(OC(=O)c2ccccc2I)CC[C@@]2(O)[C@]1(C)[C@H](OC(=O)c1ccc(O)cc1)C[C@@H]1[C@@]3(C)CC[C@H](OC(=O)c4ccccc4I)CC3=CC[C@]12O`: the inhibition result in [1], in data set [3] and in [4] was “inactive” in each case. In addition, the Activity entry in data set [2] is “Toxic”.

With `C[C@@H](OC(=O)c1ccccc1O)[C@]1(O)CC[C@@]2(O)[C@]1(C)[C@H](OC(=O)/C=C/c1ccccc1)C[C@@H]1[C@@]3(C)CC[C@H](O)CC3=CC[C@]12O`, the inhibition result in [5], in [1], in data set [7], in data set [9], in [16] and in data set [17] was “Active” throughout. The inhibition result in [18], in data set [4], in data set [21], in data set [23], in [24] and in [27] was “Active” in each case. In addition, the inhibition result in [32] and in [34] was “Active” in each case. Besides, the inhibition result in data set [6], in [10], in [12], in data set [26], in data set [28] and in data set [29] was “inactive” each time. The inhibition entry in data set [30] and in [33] was “inactive” throughout. For the same compound, the outcome in data set [8], in data set [11], in [13], in [14], in data set [15] and in [20] was Active. The result in data set [22] and in data set [25] was Active. In data set [19], the EC50 is 4.9 µM. In addition, the outcome in [31] was inactive. Also, the EC10 in data set [35] was more than 10 µM. Also, the CC10 in data set [36] was more than 10 µM.

Broadly, the EC50 is the concentration at which the effect is half-maximal. Usually EC10 stands for the concentration needed for an effect of 10%.
